Laboratory results reported in PMC8788354 (Journal of Enzyme Inhibition and Medicinal Chemistry, 2022).
Like-named read-outs stand apart in the source and are kept apart here.

Assays:
[1] = tested on: SKBR-3 (human breast cancer cell line); test: cells; assay type: cell-based; details: for IC50: SRB assay, 72 h exposure, read-out: Anticancer activity IC50 (nM) ± SD, SKBR-3
in vitro = details: human, Toxicity IC50 (nM) ± SD, HDF, healthy cell line HDF, SRB assay, 72 h exposure
[2] = tested on: SKOV-3 (ovarian cancer cell line); test: cells; assay type: cell-based, human; details: SRB assay, 72 h exposure, read-out: Anticancer activity IC50 (nM) ± SD, SKOV-3
[3] = tested on: U-87MG cells (glioblastoma cell line); test: cells; assay type: cell-based, human; details: SRB assay, 72 h exposure, read-out: Anticancer activity IC50 (nM) ± SD, U-87
[4] = tested on: PC-3 (human prostate cancer cell line); test: cells; assay type: cell-based; details: SRB assay, 72 h exposure, read-out: Anticancer activity IC50 (nM) ± SD, PC-3

## COc1cc2c(c(OC)c1OC)-c1ccc(=O)c(OCc3cn(Cc4ccc(C#N)cc4)nn3)cc1[C@@H](NC(C)=O)CC2 [Compound 5b]
[1]; Homo sapiens, SK-BR-3, 72 h
  IC50: 2.07 ± 0.08 nM
In vitro
  IC50: 4.92 ± 0.51 nM
[2]; Homo sapiens, SK-OV-3
  IC50: 2.88 ± 0.47 nM
[3]; Homo sapiens, U-87 MG
  IC50: 2.57 ± 0.13 nM
[4]; Homo sapiens
  IC50: 2.13 ± 0.02 nM

## COc1cc2c(c(OC)c1OC)-c1ccc(OCc3cn([C@@H]4O[C@H](COC(C)=O)[C@@H](OC(C)=O)[C@H](OC(C)=O)[C@H]4NC(C)=O)nn3)c(=O)cc1[C@@H](NC(C)=O)CC2 [Compound 6d]
[1]; Homo sapiens, SK-BR-3, 72 h
  IC50: 5.21 ± 0.39 nM
In vitro
  IC50: 7.29 ± 0.41 nM
[2]; Homo sapiens, SK-OV-3
  IC50: 5.93 ± 0.12 nM
[3]; Homo sapiens, U-87 MG
  IC50: 5.83 ± 0.15 nM
[4]; Homo sapiens
  IC50: 5.04 ± 0.02 nM

## C=CCOc1ccc2c(cc1=O)[C@@H](NC(C)=O)CCc1cc(OC)c(OC)c(OC)c1-2 [Compound 4d]
[1]; Homo sapiens, SK-BR-3, 72 h
  IC50: 1.73 ± 0.11 nM
In vitro
  IC50: 2.39 ± 0.17 nM
[2]; Homo sapiens, SK-OV-3
  IC50: 1.73 ± 0.07 nM
[3]; Homo sapiens, U-87 MG
  IC50: 1.78 ± 0.03 nM
[4]; Homo sapiens
  IC50: 1.71 ± 0.03 nM

## COc1cc2c(c(OC)c1OC)-c1ccc(=O)c(OCc3cn(Cc4ccc([N+](=O)[O-])cc4)nn3)cc1[C@@H](NC(C)=O)CC2 [Compound 5c]
[1]; Homo sapiens, SK-BR-3, 72 h
  IC50: 2.18 ± 0.02 nM
In vitro
  IC50: 3.12 ± 0.41 nM
[2]; Homo sapiens, SK-OV-3
  IC50: 2.94 ± 0.71 nM
[3]; Homo sapiens, U-87 MG
  IC50: 2.04 ± 0.08 nM
[4]; Homo sapiens
  IC50: 2.09 ± 0.33 nM

## COc1cc2c(c(OC)c1OC)-c1ccc(OCc3ccc(/C=C/c4ccc(CNC5=C6C[C@@H](C)C[C@H](OC)[C@H](O)[C@@H](C)/C=C(\C)[C@H](OC(N)=O)[C@@H](OC)/C=C\C=C(/C)C(=O)NC(=CC5=O)C6=O)cc4)cc3)c(=O)cc1[C@@H](NC(C)=O)CC2 [Compound 8d]
[1]; Homo sapiens, SK-BR-3, 72 h
  IC50: 11.4 ± 0.15 nM
In vitro
  IC50: 17.9 ± 1.04 nM
[2]; Homo sapiens, SK-OV-3
  IC50: 10.52 ± 0.05 nM
[3]; Homo sapiens, U-87 MG
  IC50: 10.8 ± 0.74 nM
[4]; Homo sapiens
  IC50: 11 ± 0.44 nM

## COc1cc2c(c(OC)c1OC)-c1ccc(=O)c(OCc3ccccc3)cc1[C@@H](NC(C)=O)CC2 [Compound 3a]
[1]; Homo sapiens, SK-BR-3, 72 h
  IC50: 2.04 ± 0.51 nM
[1]; SI = IC50 HDF/IC50 SKBR-3
  Selectivity index (SI), SKBR-3: ~3
In vitro
  IC50: 6.39 ± 1.04 nM
[2]; Homo sapiens, SK-OV-3
  IC50: 2.19 ± 0.07 nM
[3]; Homo sapiens, U-87 MG
  IC50: 2.83 ± 0.06 nM
[4]; Homo sapiens
  IC50: 2.27 ± 0.04 nM

## COc1cc2c(c(OC)c1OC)-c1ccc(OCc3cn(C4CC(n5cc(C)c(=O)[nH]c5=O)OC4CO)nn3)c(=O)cc1C(NC(C)=O)CC2 (centres unmarked) [Compound 6e]
[1]; Homo sapiens, SK-BR-3, 72 h
  IC50: 3.02 ± 0.31 nM
In vitro
  IC50: 5.18 ± 0.18 nM
[2]; Homo sapiens, SK-OV-3
  IC50: 3.33 ± 0.11 nM
[3]; Homo sapiens, U-87 MG
  IC50: 3.84 ± 0.02 nM
[4]; Homo sapiens
  IC50: 3.5 ± 0.49 nM

## COc1cc2c(c(OC)c1OC)-c1ccc(OCc3cn(Cc4ccc(C#N)cc4)nn3)c(=O)cc1[C@@H](NC(C)=O)CC2 [Compound 6b]
[1]; Homo sapiens, SK-BR-3, 72 h
  IC50: 3.06 ± 0.03 nM
In vitro
  IC50: 5.83 ± 0.31 nM
[2]; Homo sapiens, SK-OV-3
  IC50: 3.97 ± 0.12 nM
[3]; Homo sapiens, U-87 MG
  IC50: 3.74 ± 0.06 nM
[4]; Homo sapiens
  IC50: 3.15 ± 0.04 nM

## COc1cc2c(c(OC)c1OC)-c1ccc(=O)c(OCc3ccc(/C=C/c4ccc(CNC5=C6C[C@@H](C)C[C@H](OC)[C@H](O)[C@@H](C)/C=C(\C)[C@H](OC(N)=O)[C@@H](OC)/C=C\C=C(/C)C(=O)NC(=CC5=O)C6=O)cc4)cc3)cc1[C@@H](NC(C)=O)CC2 [Compound 7d]
[1]; Homo sapiens, SK-BR-3, 72 h
  IC50: 7.22 ± 0.19 nM
In vitro
  IC50: 9.04 ± 0.29 nM
[2]; Homo sapiens, SK-OV-3
  IC50: 7.04 ± 0.15 nM
[3]; Homo sapiens, U-87 MG
  IC50: 7.06 ± 0.44 nM
[4]; Homo sapiens
  IC50: 7.49 ± 0.32 nM

## COc1cc2c(c(OC)c1OC)-c1ccc(=O)c(OCc3cn(CCCNC4=C5C[C@@H](C)C[C@H](OC)[C@H](O)[C@@H](C)/C=C(\C)[C@H](OC(N)=O)[C@@H](OC)/C=C\C=C(/C)C(=O)NC(=CC4=O)C5=O)nn3)cc1[C@@H](NC(C)=O)CC2 [Compound 5f]
[1]; Homo sapiens, SK-BR-3, 72 h
  IC50: 8.91 ± 0.17 nM
In vitro
  IC50: 10.4 ± 0.39 nM
[2]; Homo sapiens, SK-OV-3
  IC50: 8.05 ± 0.58 nM
[3]; Homo sapiens, U-87 MG
  IC50: 8.25 ± 0.11 nM
[4]; Homo sapiens
  IC50: 8.38 ± 0.09 nM

## CCOC(=O)COc1cc2c(ccc1=O)-c1c(cc(OC)c(OC)c1OC)CC[C@@H]2NC(C)=O [Compound 3g]
[1]; Homo sapiens, SK-BR-3, 72 h
  IC50: 1.31 ± 0.08 nM
In vitro
  IC50: 2.72 ± 0.03 nM
[2]; Homo sapiens, SK-OV-3
  IC50: 1.37 ± 0.01 nM
[3]; Homo sapiens, U-87 MG
  IC50: 1.41 ± 0.03 nM
[4]; Homo sapiens
  IC50: 1.62 ± 0.29 nM

## Nc1ccn([C@@H]2O[C@H](CO)[C@@H](O)[C@@H]2O)c(=O)n1 [C, cytarabine, reference compound]
[1]; Homo sapiens, SK-BR-3, 72 h
  IC50: 870 ± 10 nM
In vitro; Human Dermal Fibroblasts (HDF) cells
  IC50 at 72 h: 5940 ± 70 nM
[2]; Homo sapiens, SK-OV-3
  IC50: 990 ± 110 nM
[3]; Homo sapiens, U-87 MG
  IC50: 850 ± 31 nM
[4]; Homo sapiens
  IC50: 810 ± 10 nM

## COc1cc2c(c(OC)c1OC)-c1ccc(=O)c(OCc3cn(Cc4ccccc4)nn3)cc1[C@@H](NC(C)=O)CC2 [Compound 5a]
[1]; Homo sapiens, SK-BR-3, 72 h
  IC50: 3.07 ± 0.11 nM
In vitro
  IC50: 5.28 ± 0.22 nM
[2]; Homo sapiens, SK-OV-3
  IC50: 3.28 ± 0.06 nM
[3]; Homo sapiens, U-87 MG
  IC50: 3.74 ± 0.19 nM
[4]; Homo sapiens
  IC50: 3.21 ± 0.15 nM

## COc1cc2c(c(OC)c1OC)-c1ccc(=O)c(OC/C=C/c3ccccc3)cc1[C@@H](NC(C)=O)CC2 [Compound 3c]
[1]; Homo sapiens, SK-BR-3, 72 h
  IC50: 3.09 ± 0.02 nM
In vitro
  IC50: 5.24 ± 0.26 nM
[2]; Homo sapiens, SK-OV-3
  IC50: 3.74 ± 0.18 nM
[3]; Homo sapiens, U-87 MG
  IC50: 3.38 ± 0.05 nM
[4]; Homo sapiens
  IC50: 3.11 ± 0.91 nM

## CO[C@@]12[C@H](COC(N)=O)C3=C(C(=O)C(C)=C(N)C3=O)N1C[C@@H]1N[C@@H]12 [MitC, mitomycin C, reference compound]
[1]; Homo sapiens, SK-BR-3
  IC50: 670 ± 10 nM
[3]; Homo sapiens, U-87 MG
  IC50: 650 ± 40 nM

## COc1cc2c(c(OC)c1OC)-c1ccc(=O)c(O)cc1[C@@H](NC(C)=O)CC2 [Compound 2, colchiceine, reference compound]
[1]
  IC50: 1.04 ± 0.07 nM
[2]
  IC50: 1.88 ± 0.02 nM
[3]
  IC50: 1.26 ± 0.04 nM
[4]
  IC50: 1.37 ± 0.02 nM
